Data on 14 molecules can be found in patent US7575640B2, “Method for producing sugar and sugar-containing products from sugar-containing plant raw materials” (Zuckerforschung Tulln Gesellschaft m.b.H., priority 2003, dated 2009).

≈ marks a conversion by molar mass, not a printed value. Structures can show the parent of a compound that is named as a salt. Where two headings read alike, the source gives them in different places.

In assay [1] the test system is thermophilic bacteria. The assay can be described thus: determination of MIC by stepwise addition until stabilization of the pH, 65° C. Type of assay: cell-based, thermophilic bacteria (mixed culture). The method, then: To illustrate the antimicrobial activity within the scope of sugar production, examples are carried out with […] compounds by way of example. […] Upon the growth of thermophilic bacteria, the pH drops progressively. This indicates a microorganism-caused acid formation. […] The fatty acid compounds used in this Example are myristic acid and lauric acid, and their potassium salts, respectively. In this case, the acids were used both individually and in a 1:1 mixture, the salts were exclusively used in a 1:1 mixture.

Assay [2] deals with thermophilic microorganisms. The assay can be described thus: germ-inhibiting activity (acid formation) under sugar production conditions, general statements. The assay is classed as cell-based. The method, then: If at 35-45° C., i.e. at those temperatures, at which it is usually worked in microbiology, a culture medium is inoculated with non-sterile crude juice from a sugar beet extraction, in most cases it is difficult to stop, by the addition of fatty acids, an acid formation recognizable by a drop in the pH (particularly in mixed cultures in which insensitive microorganism can prevail). On the other hand, the acid formation at 55° C. and 65° C. is blocked by fatty acids, depending on the chain lengths, at concentrations of from 4 to 40 mg/l over a period of time of from 1 to 10 hours. While a maximum of C11-C12 is indicated for the effects observed at normal temperature (Ullmann 1975), for thermophilic microorganisms at the higher temperature the effective maximum lies at C14 (myristic acid)
(§1) If a sugar-containing substrate, e.g. a sugar-containing liquid culture medium, as it is common in microbiology, is either non-sterilized or incubated after inoculation with a bacterial strain, an acid formation will occur which is the easiest to recognize by a drop in the pH. The same phenomenon will occur when incubating normal sugar-containing plant juices, e.g. beet juice. In an industrial process, e.g. in the recovery of sugar juice from sugar beets, a drop in the pH by degradation of sugar means a loss of sugar and a need for an alkalizing agent. Moreover, a drop in the pH with an increase in the germ content in the substrate often is associated with an unpleasant gas and nitrite formation. This arrangement also forms an efficient system for determining the germ-inhibiting activity of substances within the scope of the sugar production process.
If during such an acid formation caused by thermophilic microorganisms at higher temperatures, for instance a solution of fatty acid compounds according to the invention is added, the acid formation and the drop in the pH associated therewith will stop starting from a certain concentration of 10 ppm. Thus, the disadvantages associated with the acid formation can be avoided by the addition of myristic acid, e.g., to a sugar-containing substrate. […]

The test system of assay [3] is thermophilic bacteria. In words: pH drop (acid formation) in liquid culture medium inoculated with crude juice from sugar beet extraction, 65° C. The assay is classed as cell-based, thermophilic bacteria (mixed culture). The conditions noted are these: for behavior in such an example (effect on pH drop): as Example 2, compared with palmitic acid (basic effect lasting only a very short period); for concentration at which the pH drop is stopped / effect reached: additions of 10 mg/l. The method, then:
as §1, with “formation.” for “formation. This arrangement also forms an efficient system for determining the germ-inhibiting activity of substances within the scope of the sugar production process.”
A liquid culture medium, as commonly used in microbiology and consisting of 10 g of Bacto-peptone, 5 g of meat extract, 5 g of yeast extract, 1 g of glucose, 1 g of K2HPO4, 0.1 g of MgSO4*7H2O and 0.01 g of FeSO4*7H2O per liter of distilled water, is sterilized in conventional manner for 20 min at 120° C. and inoculated, in a vessel kept at a temperature of 65° C., with 20 ml of crude juice from a large-scale sugar beet extraction, wherein the pH is registered on a recorder. Upon the growth of thermophilic bacteria, the pH drops progressively. This indicates a microorganism-caused acid formation.
A mixed culture according to Example 1 is prepared.

[4] abbreviates: dissolved in ethanol, 10 mg/l steps, maximum 150 mg/l, 65° C., read-out: Min. Inhibitory Conc. (MIC).
The mark [5] stands for this setting: Time 4.50 h, 3×10 mg/l added between pH 6.74 and 6.49, 65° C.
The mark [6] stands for this setting: Time 4.75 h, total 30 mg/l, 65° C.
Where [7] appears, read: Time 5 h, total 30 mg/l, 65° C.
The mark [8] stands for this setting: Time 6 h, total 30 mg/l, 65° C.
Setting [9] is: Time 7 h, total 30 mg/l, 65° C.
Setting [10] is: Time 8 h, total 30 mg/l, 65° C.
[11] abbreviates: Time 9 h, total 30 mg/l, 65° C.
The mark [12] stands for this setting: Time 10 h, total 30 mg/l, 65° C.
Where [13] appears, read: Time 6 h, 10 mg/l as potassium salt added at pH 6.46 (5 h), 65° C.
[14] abbreviates: Time 7 h, 10 mg/l as potassium salt added at pH 6.46 (5 h), 65° C.
Setting [15] is: Time 8 h, 10 mg/l as potassium salt added at pH 6.46 (5 h), 65° C.
[16] abbreviates: Time 9 h, 10 mg/l as potassium salt added at pH 6.46 (5 h), 65° C.
Setting [17] is: Time 11 h, 10 mg/l as potassium salt added at pH 6.46 (5 h), 65° C.
Where [18] appears, read: Time 13 h, 10 mg/l as potassium salt added at pH 6.46 (5 h), 65° C.
The mark [19] stands for this setting: Time 15 h, 10 mg/l as potassium salt added at pH 6.46 (5 h), 65° C.
Setting [20] is: Time 17 h, 10 mg/l as potassium salt added at pH 6.46 (5 h), 65° C.
[21] abbreviates: Time 6.00 h, 10 mg/l added at pH 6.52 (5.10 h), 65° C.
[22] abbreviates: Time 6.50 h, 10 mg/l added at pH 6.52 (5.10 h), 65° C.
[23] abbreviates: Time 7 h, 10 mg/l added at pH 6.52 (5.10 h), 65° C.
Setting [24] is: Time 8 h, 10 mg/l at pH 6.52 and 4×10 mg/l between pH 6.49 and 6.36, 65° C.
Where [25] appears, read: Time 9 h, total 50 mg/l, 65° C.

Take `CCCCCCCCCCCCCC(=O)OCC` [Ethyl-Myristate, reference compound]: in assay [1] (setting [4]), the MIC is greater than 150 µg/mL.

In the case of `CCCCCCCCCCCCCCO` [Myristyl Alcohol, 1-tetradecanol], the effective concentration in assay [2] is no more than 10 ppm. Also, the MIC in assay [1] (setting [4]) came to 10 µg/mL (≈ 46.6 µM).

For `CCCCCCCCCCCCCC(=O)OCCC` [Propyl-Myristate, reference compound], the MIC in assay [1] (setting [4]) was greater than 150 µg/mL.

Regarding `CCO` [alcohol], in assay [3] (mixed culture, 65° C.), the “amount that impairs such a culture” value is listed as 40-60 ml alcohol per liter culture liquid.

Consider `CCCCCCCCCCCCCCCCCCCCCC(=O)O` [behenic acid, reference compound], for which, in assay [3], the “behavior in such an example (effect on pH drop)” value (“behavior in such an example” below) is “does not exhibit any effect”.

Turning to `CCCCCCCCCCCC(=O)O` [lauric acid], the “effect on pH drop” value in assay [3] (20 mg/l (two additions), mixed culture, 65° C.) is listed as “does not have any effect”. For the same molecule, the pH in assay [3] (setting [5]) is given as 6.49; in assay [3] (setting [6]), 6.49; in assay [3] (setting [7]), 6.49; in assay [3] (setting [8]), 6.50; in assay [3] (setting [9]) it was 6.51; in assay [3] (setting [10]), 6.52. The pH in assay [3] (setting [11]) was determined as 6.52; in assay [3] (setting [12]), 6.53. Further, the ΔpH/h in assay [3] (setting [5]) was 1.00; in assay [3] (setting [6]) it was 0.00; in assay [3] (setting [7]), 0.00; in assay [3] (setting [8]), −0.01; in assay [3] (setting [9]) it was −0.01; in assay [3] (setting [10]) it was −0.01. Also, the results for the ΔpH/h in assay [3] (setting [11]) and in assay [3] (setting [12]) were 0.00 and −0.01, respectively. For the same molecule, the “concentration at which the pH drop is stopped / effect reached” value in assay [3] (mixed culture, 65° C.) was determined as 30 mg/l. Also, the MIC in assay [1] (dissolved in ethanol, steps of 2 mg/l, read-out: Min. Inhibitory Conc. (MIC)) was determined as 18 µg/mL (≈ 89.9 µM); in assay [1] (text summary of Example 9, read-out: MIC (concentration successfully used)), 18000 µg/mL (≈ 89900 µM).

Turning to `CCCCCCCCCCCCCC(=O)OC` [methyl myristate], the inhibitory concentration entry in assay [2] is on record as “approximately 100 mg/ml”.

Regarding `CCCCCCCCCCCCCC(=O)O` [myristic acid as potassium salt, myristic acid], in assay [3] (10 mg/l, mixed culture, 65° C.), the “duration of effectiveness (pH drop stopped)” value is given as “at least 12 h”. The “effect on pH drop” value in assay [3] (10 mg/l, mixed culture, 65° C.) was “suddenly and lastingly be stopped”. Moreover, the pH was found to be 6.46 in assay [3] (setting [13]); 6.46 in assay [3] (setting [14]); 6.47 in assay [3] (setting [15]); 6.46 in assay [3] (setting [16]); 6.46 in assay [3] (setting [17]); 6.46 in assay [3] (setting [18]). Moreover, the pH in assay [3] (setting [19]) and in assay [3] (setting [20]) was 6.45 throughout. Moreover, the ΔpH/h is given as 0.00 in assay [3] (setting [13]); 0.00 in assay [3] (setting [14]); −0.01 in assay [3] (setting [15]); 0.01 in assay [3] (setting [16]); 0.00 in assay [3] (setting [17]); 0.00 in assay [3] (setting [18]). Moreover, the ΔpH/h in assay [3] (setting [19]) and in assay [3] (setting [20]) was 0.00 each time.

As to `CCCCCCCC/C=C\CCCCCCCC(=O)O` [oleic acid], the “behavior in such an example” value in assay [3] is “Quite similar”.

For `CCCCCCCCCCCCCCCC(=O)O` [palmitic acid], the “duration of effectiveness (pH drop stopped)” value in assay [3] (10 mg/l, mixed culture, 65° C.) was 1.5-2 h. The “effect on pH drop” value in assay [3] (10 mg/l, mixed culture, 65° C.) is recorded as “immediately completely stopped”. Besides, the pH in assay [3] (setting [21]) was determined as 6.53; in assay [3] (setting [22]) it was 6.53; in assay [3] (setting [23]) it was 6.49; in assay [3] (setting [24]), 6.36; in assay [3] (setting [25]), 6.29. Also, the ΔpH/h in assay [3] (setting [21]) is recorded as −0.01; in assay [3] (setting [22]), 0.00; in assay [3] (setting [23]) it was 0.08; in assay [3] (setting [24]), 0.13; in assay [3] (setting [25]), 0.07. This molecule also displayed a pH drop in assay [3] (renewed addition up to total 50 mg/l, retarded from 0.13) of 0.07 pH units per hour.

With `C/C=C/C=C/C(=O)O` [sorbic acid, reference compound], the “concentration at which the pH drop is stopped / effect reached” value in assay [3] (mixed culture, 65° C.) is greater than 150 mg/l.

On to `CCCCCCCCCCCCCCCCCC(=O)O` [stearic acid], for which, in assay [3], the “behavior in such an example” value is “Quite similar”.

Turning to `CCCCCCCCCCCCCCCCCCO` [stearyl alcohol], the effective concentration result in assay [2] is “markedly higher concentrations have to be employed”.

As to `CCCCCCCCCCC(=O)O` [undecanoic acid], the “concentration at which the pH drop is stopped / effect reached” value in assay [3] (mixed culture, 65° C.) worked out at 40 mg/l.
